Literature values, collected in article PMC6304311 (Influenza and Other Respiratory Viruses, 2018).
Where “and” joins values, the source holds several entries; their conditions need not be identical. Equal values may be shown once. Entries after “also recorded” stand apart in the source; their conditions may differ.

Key:
Conditions in all cases: cited from earlier work
[1] = target: NA from influenza A(H1N1) virus isolates (Influenza A virus, UniProt C0LLZ0)
[2] = tested on: NA from influenza A(H1N1)pdm09 virus isolates
[3] = target: NA from influenza A(H3N2) virus isolates (Influenza A virus, UniProt V5P6L4)
[4] = target: NA from influenza B virus isolates (Influenza B virus, UniProt A0A1S5RAG6)
[5] = tested on: seasonal influenza A(H1N1) viruses
[6] = tested on: influenza A(H3N2)
[7] = tested on: Influenza A(H1N1)pdm09 H275Y‐resistant phenotype viruses
[8] = read-out: IC50, resistant phenotype reference virus

Row | Compound | susceptibility phenotype of reference virus [1] | IC50 [1, 8] | susceptibility phenotype of reference virus [2] | IC50 [2, 8] | susceptibility phenotype of reference virus [3] | IC50 [3, 8] | susceptibility phenotype of reference virus [4] | frequency of resistance globally [5] | phenotype of isolates [5] | effect of I215V NA substitution on susceptibility [6] | frequency of resistance to inhibition [6] | patients with H275Y‐resistant phenotype viruses after treatment [7]
1 | CCOC(=O)C1=C[C@@H](OC(CC)CC)[C@H](NC(C)=O)[C@@H](N)C1 [oseltamivir] | susceptible; also recorded: resistant | 93.2 nM | susceptible; also recorded: resistant | 70.6 nM | susceptible; also recorded: resistant | 5.24 nM | susceptible; also recorded: resistant | 90% | phenotypically resistant | borderline reduction in susceptibility | 0.2% and 1.1% | 2%
2 | CC(=O)N[C@H]1[C@H]([C@H](O)[C@H](O)CO)OC(C(=O)O)=C[C@@H]1N=C(N)N [zanamivir] |  |  |  |  |  |  |  |  |  | borderline reduction in susceptibility |  | 
